Numbers after ± are expanded uncertainties.
Conditions: Crystal; visual observation

**Q.** With `C[n+]1ccn(CCCn2cc[n+](C)c2)c1.F[P-](F)(F)(F)(F)F.F[P-](F)(F)(F)(F)F` as the compound, how does the Normal melting temperature read?
**A.** 142.2 ± 1.5 °C
